Measurements from US12121566B2, “Methods for treating gout” (Horizon Therapeutics USA, Inc., priority 2019, dated 2024).
Where two headings read alike, the source gives them in different places.

Key:
[1] = test system: subjects weighing ≥120 kg; assay: Analysis of prior pegloticase randomized clinical trials by body weight (>=120 kg); format: in vivo, human; settings: ≥120 kg group
[2] = test system: patients with symptomatic gout; assay: Single-dose, dose-ranging trial: plasma uric acid and plasma uricase activity; format: in vivo, human
Source text: In some embodiments, patients or subjects of the present disclosure may have blood samples taken for PK analysis during treatment with KXX, either alone, or co-administered with an immunosuppressive agent, such as AZA. Although limited PK results have been reported in subjects receiving pegloticase, and no PK studies have been performed in subjects weighing ≥120 kg, the present disclosure provides PK analysis in patients receiving KXX treatment, either alone or co-administered with an immunosuppressive agent or therapy. Sundy et al. (JAMA 306(7):711-20, 2011) reported results from 24 subjects with refractory gout who received single doses from 0.5 to 12 mg of pegloticase. PK parameters included plasma uricase activity (pUox) and the plasma urate concentration (pUAc). […] It remains uncertain whether body mass affects drug distribution. Since pegloticase is administered as a single dose regardless of body mass, this is important to assess.
The duration of suppression of plasma uric acid appeared to be positively associated with pegloticase dose.

[3] = Stability of pegloticase diluted in infusion bags; format: physicochemical; settings: at 2° C. to 8° C. and at room temperature (20° C. to 25° C.)
Method: Pegloticase-diluted in infusion bags is stable for 4 hours at 2° C. to 8° C. (36° F. to 46° F.) and at room temperature (20° C. to 25° C., 68° F. to 77° F.); however, it is recommended that the diluted solution be stored under refrigeration, not frozen, protected from light, and used within 4 hours of dilution. Before administration, the diluted solution of pegloticase should be allowed to reach room temperature. Pegloticase in a vial or in an IV infusion fluid should never be subjected to artificial heating.
KXX diluted in infusion bags is stable for 4 hours at 2° to 8° C. (36° to 46° F.) and at room temperature (20° to 25° C., 68° to 77° F.). However, it is recommended that diluted solutions be stored under refrigeration, not frozen, protected from light, and used within 4 hours of dilution. Before administration, allow the diluted solution of KXX to reach room temperature. KXX in a vial or in an intravenous infusion fluid should never be subjected to artificial heating (e.g., hot water, microwave).

[4] = test system: anti-pegloticase antibodies, anti-PEG antibodies; settings: cited from earlier work
[5] = test system: patients with chronic gout refractory to conventional therapy; assay: Open-label extension study; format: in vivo, human; settings: KXX 8 mg every 2 weeks
Method: Two cases of congestive heart failure exacerbation occurred during the trials in patients receiving treatment with KXX 8 mg every 2 weeks. No cases were reported in placebo-treated patients. Four subjects had exacerbations of pre-existing congestive heart failure while receiving KXX 8 mg every 2 weeks during the open-label extension study.
(§1) Studies were stratified for the presence of tophi. Seventy-one percent (71%) of patients had baseline tophi. All patients were prophylaxed with an oral antihistamine, intravenous corticosteroid and acetaminophen. Patients also received prophylaxis for gout flares with non-steroidal anti-inflammatory drugs (NSAIDs) or colchicine, or both, beginning at least one week before KXX treatment unless medically contraindicated or not tolerated. Patients who completed the randomized clinical trials were eligible to enroll in a 2-year open label extension study.

[6] = test system: patients with chronic gout refractory to conventional therapy; assay: Two replicate randomized, double-blind, placebo controlled six-month studies (Trial 1 and Trial 2): urate lowering and tophi; format: in vivo, human
Method: The efficacy of KXX was studied in adult patients with chronic gout refractory to conventional therapy in two replicate, multicenter, randomized, double-blind, placebo controlled studies of six months duration: Trial 1 and Trial 2. Patients were randomized to receive KXX 8 mg every 2 weeks or every 4 weeks or placebo in a 2:2:1 ratio.
as §1
To assess the efficacy of KXX in lowering uric acid, the primary endpoint in both trials was the proportion of patients who achieved plasma uric acid (PUA) less than 6 mg/dL for at least 80% of the time during Month 3 and Month 6.
The effect of treatment on tophi was a secondary efficacy endpoint and was assessed using standardized digital photography, image analysis, and a Central Reader blinded to treatment assignment. Approximately 70% of patients had tophi at baseline. A pooled analysis of data from Trial 1 and Trial 2 was performed as pre-specified in the protocols. At Month 6, the percentage of patients who achieved a complete response (defined as 100% resolution of at least one target tophus, no new tophi appear and no single tophus showing progression) was 45%, 26%, and 8%, with KXX 8 mg every 2 weeks, KXX 8 mg every 4 weeks, and placebo, respectively. The difference between KXX and placebo was statistically significant for the every-2-week dosing regimen, but not for the every-4-week dosing regimen.

[7] = Pharmacokinetics after single intravenous infusions, serum uricase enzyme activity; format: in vivo, human; settings: single intravenous infusions of 0.5 mg to 12 mg, 23 patients
Method: Pegloticase levels were determined in serum based on measurements of uricase enzyme activity.

[8] = test system: rats; assay: Reproductive toxicity and fertility in rats; format: in vivo, rat
Source text: The genotoxic potential of pegloticase has not been evaluated.

[9] = test system: patients with chronic gout refractory to conventional therapy; settings: cited from earlier work
[10] = post-hoc, if KXX stopped after 2 consecutive uric acid levels greater than 6 mg/dL
[11] = post-hoc, if KXX stopped when uric acid rose to greater than 6 mg/dL on a single occasion

pegloticase
impact on serum urate [1]: less | initial serum peak of pegloticase (Cmax) [1]: lower | tendency to become non-responders [1]: greater tendency to become non-responders | plasma uric acid versus dose ([2]; 0.5, 1, 2, 4, 8 or 12 mg, 24 patients): decreased with increasing pegloticase dose or concentrations | duration of sustained decrease in plasma uric acid below 6 mg/dL ([2]; single doses of 8 mg and 12 mg, 1-hour intravenous infusion): more than 300 hours | stability diluted in infusion bags [3]: 4 h | patients with antibody titer exceeding 1:2430 at any time who maintained a response ([4]; another study, 7 of 65): 10.8% | patients with titers exceeding 1:2430 who developed IRs ([4]; another study, 31 of 52): 60% | patients who never had an antibody titer above 1:2430 who maintained a response ([4]; another study, 58/65): 89.2% | patients who developed high titer anti-pegloticase antibodies and subsequently lost response ([4]; one study, 69 of 169 patients): 41% | participants with high antibody titers who maintained a response (serum urate <6 mg/dL) ([4]; second study): 1 of 52 | participants with high titers who developed IR ([4]; second study): 60% | subjects with exacerbations of pre-existing congestive heart failure [5]: Four | efficacy in patients with creatinine clearance less than or equal to 62.5 mL/min ([6]; KXX 8 mg every 2 weeks): No overall differences | percentage of patients who achieved a complete response of tophi ([6]; Month 6, pooled Trial 1 and Trial 2, KXX 8 mg every 2 weeks): 45% | percentage of patients who achieved a complete response of tophi ([6]; Month 6, pooled Trial 1 and Trial 2, KXX 8 mg every 4 weeks): 26% | Number (%) of Subjects Who Met Response Criteria (plasma uric acid <6 mg/dL for at least 80% of the time during Months 3 and 6) ([6]; Trial 1, 8 mg every 2 weeks, N 43): 20 (47%) Number (%) | Number (%) of Subjects Who Met Response Criteria (plasma uric acid <6 mg/dL for at least 80% of the time during Months 3 and 6) ([6]; Trial 1, 8 mg every 4 weeks, N 41): 8 (20%) Number (%) | Number (%) of Subjects Who Met Response Criteria (plasma uric acid <6 mg/dL for at least 80% of the time during Months 3 and 6) ([6]; Trial 2, 8 mg every 2 weeks, N 42): 16 (38%) Number (%) | Number (%) of Subjects Who Met Response Criteria (plasma uric acid <6 mg/dL for at least 80% of the time during Months 3 and 6) ([6]; Trial 2, 8 mg every 4 weeks, N 43): 21 (49%) Number (%) | mean plasma uric acid level ([6]; approximately 24 hours following the first dose, KXX 8 mg every 2 weeks group): 0.7 mg/dL | efficacy outcome [6, 10]: little change | incidence of infusion reactions [6, 10]: half | reduction of success rates for the primary efficacy endpoint [6, 11]: approximately 20% | reduction of the incidence of infusion reactions [6, 11]: approximately 67% | maximum serum concentrations of pegloticase versus dose [7]: increased in proportion to the dose administered | mean fetal body weights ([8]; approximately 10 times the MRHD, maternal doses up to 10 mg/kg twice weekly): No effects | mean fetal and pup body weights ([8]; approximately 50 times the MRHD, maternal doses up to 40 mg/kg every other day): Statistically significant decreases | teratogenicity ([8]; approximately 50 times the MRHD, maternal doses up to 40 mg/kg twice weekly): not teratogenic | impairment on fertility ([8]; doses up to 40 mg/kg every other day (approximately 50 times the MRHD)): no evidence of impairment | incidence of infusion-related reactions ([9]; pooled Phase 3, 8 mg biweekly dosing): 26% | incidence of infusion-related reactions ([9]; pooled Phase 3, 8 mg every-4-week dosing regimen): 40% | patients with IRs in whom loss of response (return to SUA >6 mg/dL) preceded the first IR ([9]; pooled Phase 3, 20/21): 95%
